Results taken from patent US20140107316A1, “DRUG DELIVERY CONJUGATES CONTAINING UNNATURAL AMINO ACIDS AND METHODS FOR USING” (priority 2012, published 2014).
“Also recorded” adds a separate entry of the source. Marks after values point to notes of the source that are not given here.

Columns and labels:
[1] = system: NCI/ADR-RES-Cl2; experiment: In vitro test against cancer cell lines, NCI/ADR-RES-Cl2; type: cell-based, Human
Procedure: (§1) In vitro test against the various cancer cell lines. Cells are heavily seeded in 24-well Falcon plates and allowed to form nearly confluent monolayers overnight. Thirty minutes prior to the addition of the test compound, spent medium is aspirated from all wells and replaced with fresh folate-deficient RPMI medium (FFRPMI). A subset of wells are designated to receive media containing 100 μM folic acid. The cells in the designated wells are used to determine the targeting specificity. […] Following one rinse with 1 mL of fresh FFRPMI containing 10% heat-inactivated fetal calf serum, each well receives 1 mL of medium containing increasing concentrations of test compound (4 wells per sample) in the presence or absence of 100 μM free folic acid as indicated. Treated cells are pulsed for 2 h at 37° C., rinsed 4 times with 0.5 mL of media, and then chased in 1 mL of fresh medium up to 70 h. Spent medium is aspirated from all wells and replaced with fresh medium containing 5 μCi/mL ^3H-thymidine. […] A 450 μL aliquot of each solubilized sample is transferred to a scintillation vial containing 3 mL of Ecolume scintillation cocktail and then counted in a liquid scintillation counter. Final tabulated results are expressed as the percentage of ^3H-thymidine incorporation relative to untreated controls.
(§2) Folate receptor expressing cells. […] EC1456 was evaluated from 0.1-100 nM.

[2] = system: HepG2; experiment: In vitro test against cancer cell lines, HepG2; type: cell-based, Human; details: HepG2, FR status −; evaluated from 0.1-100 nM
Procedure: as §1, §2

[3] = system: A549; experiment: In vitro test against cancer cell lines, A549; type: cell-based, Human; details: A549, FR status −; evaluated from 0.1-100 nM
Procedure: as §1, §2

[4] = system: LNCaP; experiment: In vitro test against cancer cell lines, LNCaP; type: cell-based, Human; details: FR status −, evaluated from 0.1-100 nM, read-out: EC1456 Activity (IC50)
Procedure: as §1, §2

[5] = system: IGROV1; experiment: In vitro test against cancer cell lines, IGROV1; type: cell-based, Human
Procedure: as §1, §2

[6] = system: AN3CA; experiment: In vitro test against cancer cell lines, AN3CA; type: cell-based, Human; details: FR status −, evaluated from 0.1-100 nM
Procedure: as §1, §2

[7] = Maximum tolerated dose (MTD); type: in vivo, female Sprague-Dawley rats
Description: Maximum tolerated dose (MTD). […] For Example, EC1456 has a MTD of at least 0.51 μmol/kg and EC0531 has a MTD of 0.33 μmol/kg, […] when administered by i.v., BIW, 2 wks in female Sprague-Dawley rats. Histopathologic changes were not observed with doses of EC1456 at or below the MTD.

[8] = system: KB-CR tumors; experiment: Cisplatin-resistant KB-CR tumor model; type: in vivo; details: 2 μmol/kg i.v., three times per week (M/W/F), 2 weeks
[9] = system: KB tumors; experiment: KB tumor assay in nu/nu mice; details: for CR (%) / Cures (%) / PR (%) / Toxicity Deaths (%) / Toxicity Avg. Weight Loss: TIW
Procedure: Inhibition of Tumor Growth in Mice. Four to seven week-old mice (Balb/c or nu/nu strains) were purchased from Harlan Sprague Dawley, Inc. (Indianapolis, Ind.). Normal rodent chow contains a high concentration of folic acid (6 mg/kg chow); accordingly, mice used were maintained on the folate-free diet (Harlan diet #TD00434) for 1 week before tumor implantation to achieve serum folate concentrations close to the range of normal human serum. For tumor cell inoculation, 1×10^6 M109 cells (Balb/c strain) or 1×10^6 KB cells (nu/nu strain) in 100 μL were injected in the subcutis of the dorsal medial area. Tumors were measured in two perpendicular directions every 2-3 days using a caliper, and their volumes were calculated as 0.5×L×W^2, where L=measurement of longest axis in mm and W=measurement of axis perpendicular to L in mm. […] Dosing solutions were prepared fresh each day in PBS and administered through the lateral tail vein of the mice.
General KB Tumor Assay. The anti-tumor activity of the compounds described herein, when administered intravenously (i.v.) to tumor-bearing animals, was evaluated in nu/nu mice bearing subcutaneous KB tumors. Approximately 8 days post tumor inoculation in the subcutis of the right axilla with 1×10^6 KB cells (average tumor volume at to=50-100 mm^3), in mice (5/group) were injected i.v. three times a week (TIW), for 3 weeks with […] of the drug delivery conjugate or with an equivalent dose volume of PBS (control), unless otherwise indicated. Tumor growth was measured using calipers at 2-day or 3-day intervals in each treatment group. Tumor volumes were calculated using the equation V=a×b^2/2, where “a” is the length of the tumor and “b” is the width expressed in millimeters.
Toxicity as Measured by Weight Loss. The percentage weight change of the mice was determined in mice (5 mice/group) on selected days post-tumor inoculation (PTI), and graphed.
In vivo activity against tumors.

[10] = system: H23; experiment: In vitro test against cancer cell lines, H23; type: cell-based, Human; details: H23, FR status −; evaluated from 0.1-100 nM
Procedure: as §1, §2

[11] = system: MDA-MB-231; experiment: In vitro test against cancer cell lines, MDA-MB-231; type: cell-based, Human
Procedure: as §1, §2

## CCCC(=O)OCN(C(=O)[C@@H](NC(=O)[C@H]1CCCCN1C)[C@@H](C)CC)[C@H](C[C@@H](OC(C)=O)c1nc(C(=O)N[C@@H](Cc2ccc(O)cc2)C[C@H](C)C(=O)NNC(=O)OCCSSC[C@@H](NC(=O)[C@H](CCC(=O)NC[C@H](O)[C@@H](O)[C@H](O)[C@H](O)CO)NC(=O)[C@@H](CCC(=O)O)NC(=O)[C@H](CCC(=O)NC[C@H](O)[C@@H](O)[C@H](O)[C@H](O)CO)NC(=O)[C@@H](CCC(=O)O)NC(=O)[C@H](CCC(=O)NC[C@H](O)[C@@H](O)[C@H](O)[C@H](O)CO)NC(=O)CC[C@@H](NC(=O)c2ccc(NCc3cnc4nc(N)[nH]c(=O)c4n3)cc2)C(=O)O)C(=O)O)cs1)C(C)C [EC1456]
[1]; NCI/ADR-RES-Cl2
  Competable up to 100 nM: Yes
[1]; NCI/ADR-RES-Cl2, FR status ++, evaluated from 0.1-100 nM, read-out: EC1456 Activity (IC50)
  IC50: 1.4 nM
[2]
  EC1456 Activity (IC50): Inactive
[3]
  EC1456 Activity (IC50): Inactive
[4]
  IC50: ~850 nM
[5]; IGROV1
  Competable up to 100 nM: Yes
[5]; IGROV1, FR status +, evaluated from 0.1-100 nM, read-out: EC1456 Activity (IC50)
  IC50: 0.72 nM
[6]
  EC1456 Activity (IC50): Inactive
[7]; doses at or below the MTD
  Histopathologic changes: not observed
[7]; i.v., BIW, 2 wks
  improvement in MTD over EC0531: 65%
[7]; rat, in vivo, iv, BIW, 2 wks
  MTD: ≥ 0.51 µmol/kg
[8]
  complete responses: ⅕
  cures: ⅘
  weight loss / host animal toxicity: did not exhibit significant host animal toxicity; also recorded: did not cause any weight loss
[9]
  In vivo activity: Complete
[9]; 0.5 μmol/kg, 3 weeks
  CR (%): 0%
  Cures (%): 0%
  PR (%): 60%
  Toxicity Deaths (%): 0%
[9]; 0.5 μmol/kg, 3 weeks, untreated control group 2.4%
  Toxicity Avg. Weight Loss: <5%*
[9]; 0.67 μmol/kg, 2 weeks
  CR (%): 20%
  Cures (%): 0%
  PR (%): 60%
  Toxicity Avg. Weight Loss: <2%
  Toxicity Deaths (%): 0%
[9]; 1 μmol/kg TIW co-dosed with excess EC0923 (50 or 100 μmol/kg)
  specific activity mediated by the folate receptor: competable with excess EC0923
[9]; 1 μmol/kg TIW, 2 wk
  whole animal toxicity (animal body weight): did not result in any observable gross toxicity; also recorded: does not show any evidence of whole animal toxicity
[9]; 1.0 μmol/kg, 2 weeks
  CR (%): 0%
  Cures (%): 60%
  PR (%): 40%
  Toxicity Avg. Weight Loss: <1.5%
  Toxicity Deaths (%): 0%
[9]; 2.0 μmol/kg, 2 weeks
  CR (%): 0%
  Cures (%): 100%
  PR (%): 0%
  Toxicity Avg. Weight Loss: <3%
  Toxicity Deaths (%): 0%
[9]; intravenously 1 μmol/kg TIW, 2 wk
  complete response (test animals): 4/4
[9]; mouse, in vivo
  toxicity in relation to anti-tumor effect in mice: anti-tumor responses without significant toxicity
[10]
  EC1456 Activity (IC50): Inactive
[11]; MDA-MB-231
  Competable up to 100 nM: Yes
[11]; MDA-MB-231, FR status +, evaluated from 0.1-100 nM, read-out: EC1456 Activity (IC50)
  IC50: 0.47 nM
